Results on 36 compounds are retold here after patent publication US11457629B2, “Heteroarylphenylaminoquinolines and analogues” (Bayer Aktiengesellschaft, priority 2017, dated 2022).

Like-named read-outs stand apart in the source and are kept apart here.

In one series the test system is Leptnosphaeria nodorum. Briefly: Example D: Leptnosphaeria nodorum in vitro cell test. The class given is cell-based. The note with it: 144 h, read-out: efficacy (inhibition of fungal growth).
Another series has as its system Pyricularia oryzae. Briefly: microbe, parasite or virus in culture. The note with it: 120 h, read-out: efficacy (inhibition of fungal growth). The class given is cell-based.
Series [1] in a line: Log P by HPLC on reversed phase columns, method [a] (acidic range, 0.1% formic acid).
Experimental: In the following, measurement of Log P values was performed according to EEC directive 79/831 Annex V.A8 by HPLC (High Performance Liquid Chromatography) on reversed phase columns with the following methods: • ^[a]
If more than one Log P value is available within the same method, all the values are given and separated by “+”.
Calibration was done with straight-chain alkan2-ones (with 3 to 16 carbon atoms) with known Log P values (measurement of Log P values using retention times with linear interpolation between successive alkanones).
The subject of series [2] is Colletotrichum lindemuthianum. In words: Example F: Colletotrichum lindemuthianum in vitro cell test. In kind it is cell-based. As to conditions: 144 h, 20 ppm of active ingredient, 6 days incubation, read-out: efficacy (inhibition of fungal growth).
The next series concerns Botrytis cinerea. Briefly: Example H: comparative data, in vivo preventive test on Botrytis cinerea (grey mould), gherkin. As to conditions: rate of application 500 ppm, evaluated 4 to 5 days after inoculation.
Where [3] appears, read: logP, HPLC on reversed phase columns, method [a]: acidic range.
Where [4] appears, read: LogP, method [a] / Method A: LC-UV, acidic range.
[5] abbreviates: 20 ppm of active ingredient, 6 days incubation.

On to `Cc1nc2c(F)c(F)ccc2cc1Nc1ccccc1-c1ccn(C(C)C)n1` [Example I-043, 7,8-difluoro-N-[2-(1-isopropylpyrazol-3-yl)phenyl]-2-methyl-quinolin-3-amine], for which the inhibition (usually the relative decrease from the control value, in per cent) at 20 ppm with Leptnosphaeria nodorum is 80 to 89%; with Pyricularia oryzae it was 90 to 100%. Further, the chromatographic logP (commonly lipophilicity estimated from chromatographic retention) in series [1] (setting [3]) was 5.
In the case of `Cc1nc2c(F)c(F)ccc2cc1N(C)c1ccccc1-c1ccn(C(C)C)n1` [Example I-046, 7,8-difluoro-N-[2-(1-isopropylpyrazol-3-yl)phenyl]-N,2-dimethyl-quinolin-3-amine], in the series on Pyricularia oryzae, the inhibition at 20 ppm was 80 to 89%. Besides, the chromatographic logP in series [1] (setting [4]) and in series [1] (setting [3]) was 4.36 in each case.
Take `Cc1nc2c(F)c(F)ccc2cc1Nc1cccc(F)c1-c1ccnn1C` [Example I-050, 7,8-difluoro-N-[3-fluoro-2-(1-methyl-1H-pyrazol-5-yl)phenyl]-2-methylquinolin-3-amine]: the inhibition at 20 ppm (in the series with Leptnosphaeria nodorum (setting [5]); in the series on Pyricularia oryzae; in series [2]) was 90 to 100% in each case. Further, the figures for the chromatographic logP in series [1] (setting [4]) and in series [1] (setting [3]) were 3.07 and 3.09, respectively.
For `COC(=O)c1ccn(-c2ccccc2Nc2cnc3ccccc3c2)n1` [Example I-062, methyl 1-[2-(3-quinolylamino)phenyl]pyrazole-3-carboxylate], the chromatographic logP in series [1] (setting [4]) and in series [1] (setting [3]) was 2.16 each time.
As for `COC(=O)c1ccnn1-c1ccccc1Nc1cnc2ccccc2c1` [Example I-064, methyl 1-[2-(quinolin-3-ylamino)phenyl]-1H-pyrazole-5-carboxylate], the inhibition at 20 ppm was 70 to 79% in the series on Leptnosphaeria nodorum (setting [5]) and 80 to 89% in series [2]. The chromatographic logP in series [1] (setting [4]) and in series [1] (setting [3]) was 2.02 throughout.
`CC(C)(C)[Si](C)(C)OCc1ccnn1-c1ccccc1Nc1cnc2ccccc2c1` [Example I-069, N-{2-[5-({[tert-butyl(dimethyl)silyl]oxy}methyl)-1H-pyrazol-1-yl]phenyl}quinolin-3-amine]: the inhibition at 20 ppm in the series on Leptnosphaeria nodorum (setting [5]) lay within 80 to 89%. The chromatographic logP in series [1] (setting [4]) and in series [1] (setting [3]) was 4.92 throughout.
Turning to `CCn1nccc1-c1ccccc1Nc1cnc2c(F)cccc2c1` [Example I-080, N-[2-(1-ethyl-1H-pyrazol-5-yl)phenyl]-8-fluoroquinolin-3-amine], the inhibition at 20 ppm in the series with Leptnosphaeria nodorum (setting [5]) is 90 to 100%; with Pyricularia oryzae it was 80 to 89%; in series [2], 90 to 100%. Further, the results for the chromatographic logP in series [1] (setting [4]) and in series [1] (setting [3]) were 2.82 and 2.84, respectively.
With `Cc1nc2ccccc2nc1Nc1cccc(F)c1-c1ccnn1C` [Example I-083, N-[3-fluoro-2-(1-methyl-1H-pyrazol-5-yl)phenyl]-3-methylquinoxalin-2-amine], the inhibition at 20 ppm (in the series with Leptnosphaeria nodorum (setting [5]); in the series with Pyricularia oryzae; in series [2]) was 90 to 100% each time. Moreover, the chromatographic logP in series [1] (setting [4]) and in series [1] (setting [3]) was 2.82 each time.
On to `Fc1cccc2cc(Nc3ccccc3-c3ccnn3Cc3ccccc3)cnc12` [Example I-096, N-[2-(1-benzyl-1H-pyrazol-5-yl)phenyl]-8-fluoroquinolin-3-amine], for which the inhibition at 20 ppm (in the series on Leptnosphaeria nodorum (setting [5]); in the series with Pyricularia oryzae; in series [2]) was 90 to 100% each time. In addition, the chromatographic logP in series [1] (setting [4]) and in series [1] (setting [3]) was 3.49 each time.
In the case of `Cn1nccc1-c1c(F)cccc1Br` [IXa-01, 5-(2-bromo-6-fluorophenyl)-1-methyl-1H-pyrazole], in series [1] (setting [4]), the chromatographic logP is 2.4.
Still for that read-out and setting: in the case of `CC(C)n1nccc1-c1c(F)cccc1Br` [IXa-02, 5-(2-bromo-6-fluorophenyl)-1-isopropyl-1H-pyrazole] it was 3.09; in that of `CC(C)(C)n1nccc1-c1c(F)cccc1Br` [IXa-03, 5-(2-bromo-6-fluorophenyl)-1-tert-butyl-1H-pyrazole], 3.61; in that of `CCn1nccc1-c1c(F)cccc1Br` [IXa-04, 5-(2-bromo-6-fluorophenyl)-1-ethyl-1H-pyrazole], 2.71.
Same read-out and setting: in the case of `Fc1cccc(Br)c1-c1ccnn1CCc1ccccc1` [IXa-05, 5-(2-bromo-6-fluorophenyl)-1-(2-phenylethyl)-1H-pyrazole] it was 3.83; in that of `OCc1ccnn1-c1c(F)cccc1Br` [IXb-01, [1-(2-bromo-6-fluorophenyl)-1H-pyrazol-5-yl]methanol], 1.27.
On the same count and under the same terms, with `CC(C)(C)[Si](C)(C)OCc1ccnn1-c1c(F)cccc1Br` [IXb-02, 1-(2-bromo-6-fluorophenyl)-5-({[tert-butyl(dimethyl)silyl]oxy}methyl)-1H-pyrazole] the figure was 4.96.
On to `COC(=O)c1ccnn1-c1c(F)cccc1Br` [IXb-03, methyl 1-(2-bromo-6-fluorophenyl)-1H-pyrazole-5-carboxylate], for which the chromatographic logP in series [1] (setting [4]) turned out to be 2.53.
The compound `CC(C)(C)[Si](C)(C)OCc1ccnn1-c1c(N)cccc1F` [IXb-04, 2-[5-({[tert-butyl(dimethyl)silyl]oxy}methyl)-1H-pyrazol-1-yl]-3-fluoroaniline] came in with a chromatographic logP in series [1] (setting [4]) of 4.1.
Still for that read-out and setting: in the case of `Fc1cccc2cc(Nc3ccccc3Br)cnc12` [N-(2-bromophenyl)-8-fluoro-quinolin-3-amine] it was 3.27; in that of `CC1(C)OB(c2ccccc2Nc2cnc3c(F)cccc3c2)OC1(C)C` [VI-01, 8-fluoro-N-[2-(4,4,5,5-tetramethyl-1,3,2-dioxaborolan-2-yl)phenyl]quinolin-3-amine], 4.87.
As for `CC1(C)OB(c2ccccc2Nc2cnc3ccccc3c2)OC1(C)C` [VI-02, N-[2-(4,4,5,5-tetramethyl-1,3,2-dioxaborolan-2-yl)phenyl]quinolin-3-amine], in series [1] (setting [4]), the chromatographic logP came to 4.29.
With `CC1(C)OB(c2ccccc2Cc2cnc3ccccc3c2)OC1(C)C` [VI-03, 3-[2-(4,4,5,5-tetramethyl-1,3,2-dioxaborolan-2-yl)benzyl]quinoline], the chromatographic logP in series [1] (setting [4]) came to 3.39.
For `CC(C)(C)OC(=O)N(c1cnc2ccccc2c1)c1ccccc1-n1nccc1C(=O)O` [XX-01, 1-{2-[(tert-butoxycarbonyl)(quinolin-3-yl)amino]phenyl}-1H-pyrazole-5-carboxylic acid], in series [1] (setting [4]), the chromatographic logP was 2.42.
In series [1] (setting [4]), `CC(C)(C)OC(=O)N(c1cnc2ccccc2c1)c1cccc(F)c1-n1nccc1C(=O)O` [XX-02, 1-{2-[(tert-butoxycarbonyl)(quinolin-3-yl)amino]-6-fluorophenyl}-1H-pyrazole-5-carboxylic acid] yielded a chromatographic logP of 2.62.
Same read-out and setting: in the case of `COC(=O)c1ccnn1-c1c(F)cccc1N(C(=O)OC(C)(C)C)c1cnc2ccccc2c1` [XX-03, methyl 1-{2-[(tert-butoxycarbonyl)(quinolin-3-yl)amino]-6-fluorophenyl}-1H-pyrazole-5-carboxylate] it was 3.36; in that of `C=C(C)c1ccnn1-c1ccccc1N(C(=O)OC(C)(C)C)c1cnc2ccccc2c1` [XX-04, tert-butyl {2-[5-(prop-1-en-2-yl)-1H-pyrazol-1-yl]phenyl}quinolin-3-ylcarbamate], 3.67.
As for `COC(=O)c1ccnn1-c1ccccc1N(C(=O)OC(C)(C)C)c1cnc2ccccc2c1` [XX-05, Methyl 1-(2-(tert-butoxycarbonyl(quinolin-3-yl)amino)phenyl)-1H-pyrazole-5-carboxylate], the chromatographic logP in series [1] (setting [4]) was found to be 3.19.
The compound `CC(C)(C)OC(=O)N(c1cnc2ccccc2c1)c1ccccc1-n1nccc1C=O` [XX-06, tert-butyl [2-(5-formyl-1H-pyrazol-1-yl)phenyl]quinolin-3-ylcarbamate] returned a chromatographic logP in series [1] (setting [4]) of 3.06.
Still for that read-out and setting: with `CC(C)(C)OC(=O)N(c1cnc2ccccc2c1)c1ccccc1-n1nccc1CO[Si](C)(C)C(C)(C)C` [XX-07, tert-butyl {2-[5-({[tert-butyl(dimethyl)silyl]oxy}methyl)-1H-pyrazol-1-yl]phenyl}quinolin-3-ylcarbamate] the figure was 5.84.
`CC(C)(C)OC(=O)N(c1cnc2ccccc2c1)c1cccc(F)c1-n1nccc1CO` [XX-08, tert-butyl {3-fluoro-2-[5-(hydroxymethyl)-1H-pyrazol-1-yl]phenyl}quinolin-3-ylcarbamate] came in with a chromatographic logP in series [1] (setting [4]) of 2.47.
On the same count and under the same terms, in the case of `CC(C)(C)OC(=O)N(c1cnc2ccccc2c1)c1cccc(F)c1-n1nccc1CO[Si](C)(C)C(C)(C)C` [XX-09, tert-butyl {2-[5-({[tert-butyl(dimethyl)silyl]oxy}methyl)-1H-pyrazol-1-yl]-3-fluorophenyl}quinolin-3-ylcarbamate] it was 5.8; in that of `CC(C)(C)OC(=O)N(c1cnc2ccccc2c1)c1cccc(F)c1-n1nccc1C=O` [XX-10, tert-butyl [3-fluoro-2-(5-formyl-1H-pyrazol-1-yl)phenyl]quinolin-3-ylcarbamate], 3.24.
The same measure, in the same setting: in the case of `CC(C)(C)OC(=O)N(c1cnc2ccccc2c1)c1cccc(F)c1-n1nccc1C(C)(C)O` [XX-11, tert-butyl {3-fluoro-2-[5-(2-hydroxypropan-2-yl)-1H-pyrazol-1-yl]phenyl}quinolin-3-ylcarbamate] it was 3.33.
On the same count and under the same terms, with `CC(C)(C)OC(=O)N(c1cnc2ccccc2c1)c1ccccc1-n1nccc1CO` [XX-12, tert-butyl {2-[5-(hydroxymethyl)-1H-pyrazol-1-yl]phenyl}quinolin-3-ylcarbamate] the figure was 2.35.
In the series on Botrytis cinerea, `C=C(C)c1ccnn1-c1ccccc1Oc1cnc2ccccc2c1` [drawing 46, reference compound] gave an Efficacy in % of 20%.
In the series with Botrytis cinerea, `CC(C)n1ccc(-c2c(F)cccc2Oc2cnc3ccccc3c2)n1` [drawing 47, reference compound] had an Efficacy in % of 68%.
